Like-named read-outs stand apart in the source and are kept apart here.
Key:
[1] = Pectin / calcium acetate supplementation in human males: body weight and BMI; format: in vivo
fibrin clot [2] = target: fibrin clot (Homo sapiens, UniProt P02671+P02675+P02679); conditions: in vitro, n = 5
[3] = Supplementation in human males: metabolic variables; conditions: for ACETATE: acetate level in blood sample; for FFA: free fatty acids; for IR: insulin resistance; for TP: total protein
Experimental: (§1) The respective effects of pectin and an acetate when administered to the colon of a mammal were determined during a first experiment. The experiment was conducted in the following two phases: [drawing 1]
(§2) Twenty human males participated in the experimentation and these subjects were not on any medication for any chronic diseases at the time, and also had no history of cardiovascular disease. All the subjects were at the time following a relatively high fibre, low fat diet. During the first phase ten subjects consumed a total of 15 grams of pectin per day in four aliquots, while the other ten consumed a total of 15 grams of placebo (starch) per day in four aliquots.
(§3) During the second phase, the first group consumed a total of 7.5 grams of calcium acetate per day in four aliquots and the second group consumed a total of 15 grams of pectin per day in four aliquots. The calcium acetate was administered in capsules which were coated with a protective coating comprising a resin known commercially as shellac. This protective coating is resistant to digestion and solution in the stomach and small intestines, is but not resistant to the enzymes of the organisms usually found in the colon, so that the calcium acetate was thus released in the colon.
(§4) Blood samples where taken from the subjects after each phase and a large number of variables where tested.

fibrin clot [4] = assay: Supplementation in human males: haemostatic variables and characteristics of fibrin networks developed in plasma; format: in vivo; conditions: for CLOT (FIBRIN): clot fibrin content; for LYSIS TIME (t 50%) / Permeability: clot; for COMPACTION: fibrin clot; for MPC: macromolecular protein complex; for μ,: mass length ratio from turbidity; for FIBRINOGEN: plasma
Experimental: as §1, §2, §3, §4

fibrin = fibrin (Homo sapiens, UniProt P02671+P02675+P02679); conditions: progressive increase in acetate, FIG. 2
Text: FIG. 2 is a urbidity curve of fibrin formation in the presence of different acetate concentrations; and
Referring to FIG. 2, the kinetics of network growth were subsequently investigated by continuously recording changes in turbidity at 608 nm, during network development under identical experimental conditions.

blood lipids [5] = conditions: for % Inhibition / [Hydroperoxide]: in vitro; for [Hydroperoxide]: n = 5
[6] = Pectin / calcium acetate supplementation in human males: body weight and BMI; format: in vivo; remark: listed apart in the source
Text: The acetate supplement (phase 2), however, caused a decrease (from 88.16±12.35 kg to 83.09±10.80 kg) in body weight. Although this decrease may not be of statistical significance, it can be clinically significant in the cases of those subjects who lost weight.

blood lipids [7] = assay: Supplementation in human males: lipid variables; format: in vivo; conditions: for TC: total cholesterol; for TG: triglycerides
Experimental: as §1, §2, §3, §4

[8] = Supplementation in human males: haemorheological variables (haematocrit, haemoglobin, plasma viscosity); format: in vivo; conditions: for VISCOSITY: plasma
Experimental: as §1, §2, §3, §4

[9] = phase 2, end of supplementation (pectin 15 g/day; calcium acetate 7.5 g/day)

Chain of fibrin clot (Homo sapiens, UniProt P02671+P02675+P02679) (P02671 36-629 limits assumed): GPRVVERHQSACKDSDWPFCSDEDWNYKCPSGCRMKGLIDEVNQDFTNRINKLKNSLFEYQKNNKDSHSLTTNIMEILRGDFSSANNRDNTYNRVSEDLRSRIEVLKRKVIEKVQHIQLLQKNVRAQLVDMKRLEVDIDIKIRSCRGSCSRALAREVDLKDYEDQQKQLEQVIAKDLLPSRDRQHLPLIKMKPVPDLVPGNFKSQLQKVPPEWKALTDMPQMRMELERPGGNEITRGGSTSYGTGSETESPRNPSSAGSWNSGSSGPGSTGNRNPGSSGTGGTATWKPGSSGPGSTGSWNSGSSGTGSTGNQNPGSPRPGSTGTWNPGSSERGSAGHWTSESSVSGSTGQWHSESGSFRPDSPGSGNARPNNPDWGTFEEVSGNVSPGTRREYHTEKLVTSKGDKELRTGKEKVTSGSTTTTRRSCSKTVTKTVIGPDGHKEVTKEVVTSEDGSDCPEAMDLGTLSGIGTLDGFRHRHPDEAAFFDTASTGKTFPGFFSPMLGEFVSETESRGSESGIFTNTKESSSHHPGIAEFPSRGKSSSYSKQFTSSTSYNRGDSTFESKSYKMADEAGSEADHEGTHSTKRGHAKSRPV
Chain of fibrin clot (Homo sapiens, UniProt P02671+P02675+P02679) (P02675 45-491 limits assumed): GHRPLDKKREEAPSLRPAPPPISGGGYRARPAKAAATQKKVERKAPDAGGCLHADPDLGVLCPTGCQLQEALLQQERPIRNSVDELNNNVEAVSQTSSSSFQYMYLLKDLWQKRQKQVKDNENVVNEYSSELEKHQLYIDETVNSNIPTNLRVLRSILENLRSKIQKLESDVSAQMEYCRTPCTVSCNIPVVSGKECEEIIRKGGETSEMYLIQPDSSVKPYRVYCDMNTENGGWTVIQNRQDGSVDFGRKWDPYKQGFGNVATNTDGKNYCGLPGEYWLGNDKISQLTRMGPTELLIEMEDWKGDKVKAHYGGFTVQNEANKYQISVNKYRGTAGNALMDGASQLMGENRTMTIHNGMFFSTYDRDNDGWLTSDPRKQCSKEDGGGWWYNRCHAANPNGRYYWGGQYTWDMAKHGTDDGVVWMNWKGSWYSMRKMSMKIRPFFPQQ
Chain of fibrin clot (Homo sapiens, UniProt P02671+P02675+P02679) (P02679 27-437 isoform P02679-2 limits assumed): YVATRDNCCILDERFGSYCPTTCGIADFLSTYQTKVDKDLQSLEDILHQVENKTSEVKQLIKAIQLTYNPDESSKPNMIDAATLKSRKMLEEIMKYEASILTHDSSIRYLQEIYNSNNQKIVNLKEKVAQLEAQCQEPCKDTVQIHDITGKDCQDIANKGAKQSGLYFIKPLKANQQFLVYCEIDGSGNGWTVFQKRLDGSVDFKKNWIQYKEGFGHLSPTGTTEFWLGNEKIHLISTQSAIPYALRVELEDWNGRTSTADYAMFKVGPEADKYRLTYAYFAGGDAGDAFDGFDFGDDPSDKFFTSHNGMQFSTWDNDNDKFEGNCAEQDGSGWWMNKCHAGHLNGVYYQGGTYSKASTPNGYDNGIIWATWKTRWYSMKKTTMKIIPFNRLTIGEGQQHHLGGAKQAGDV
Chain of fibrin (P02671 36-629 limits assumed): as the sequence (P02671 36-629 limits assumed) above
Chain of fibrin (P02675 45-491 limits assumed): as the sequence (P02675 45-491 limits assumed) above
Chain of fibrin (P02679 27-437 isoform P02679-2 limits assumed): as the sequence (P02679 27-437 isoform P02679-2 limits assumed) above

SMILES: CC(=O)[O-].CC(=O)[O-].[Ca+2] [ACETATE, calcium acetate]
- BODY WEIGHT ([1]; phase 2, baseline): 88.16 ± 12.35 kg
- BODY WEIGHT ([1]; phase 2, baseline, listed as PLACEBO): 88.16 kg
- decrease in body weight ([1]; phase 2, clinically significant but statistically insignificant): 5.07 kg
- BODY WEIGHT [1, 9]: 83.09 ± 10.80 kg
- BODY WEIGHT ([1]; phase 2, end of supplementation (pectin 15 g/day; calcium acetate 7.5 g/day), listed as PLACEBO): 83.04 kg
- Clot [FIBRlN] (fibrin clot [2]; 75 μmol/L acetate): 1.36 ± 0.03 g/L
- Permeability (fibrin clot [2]; 75 μmol/L acetate): 110.4 ± 5.17 × 10^11 cm^2
- μT (fibrin clot [2]; 75 μmol/L acetate): 17.44 ± 0.20 daltons/cm × 10^12
- Clot [FIBRlN] (fibrin clot [2]; 100 μmol/L acetate): 1.37 ± 0.07 g/L
- Permeability (fibrin clot [2]; 100 μmol/L acetate): 118.0 ± 6.03 × 10^11 cm^2
- μT (fibrin clot [2]; 100 μmol/L acetate): 17.95 ± 0.22 daltons/cm × 10^12
- Clot [FIBRlN] (fibrin clot [2]; 150 μmol/L acetate): 1.39 ± 0.05 g/L
- Permeability (fibrin clot [2]; 150 μmol/L acetate): 134.0 ± 5.02 × 10^11 cm^2
- μT (fibrin clot [2]; 150 μmol/L acetate): 19.51 ± 0.17 daltons/cm × 10^12
- ACETATE ([3]; phase 2, baseline): 37.63 µmol/L
- ACETATE [3, 9]: 54.31 ± μmol/l
- FFA ([3]; phase 2, baseline): 0.59 mmol/L
- FFA [3, 9]: 0.45 ± mmol/l
- IR ([3]; phase 2, baseline): 3.22
- IR [3, 9]: 2.93
- ALBUMIN ([3]; phase 2, baseline): 43.09 g/L
- GLUCOSE ([3]; phase 2, baseline): 3.58 mmol/L
- INSULIN ([3]; phase 2, baseline): 8.96 μU/ml
- PPA/ALB ([3]; phase 2, baseline): 13.69 × 10^1
- ALBUMIN [3, 9]: 45.50 g/L
- GLUCOSE [3, 9]: 3.78 mmol/L
- INSULIN [3, 9]: 7.61 μU/ml
- PPA/ALB [3, 9]: 9.89 ± × 10^1
- TP ([3]; phase 2, baseline): 71.69 g/L
- TP [3, 9]: 71.52 g/L
- CLOT (FIBRIN) (fibrin clot [4]; phase 2, baseline): 2.00 g/L
- CLOT (FIBRIN) (fibrin clot [4]; [9]): 1.62 ± g/l
- LYSIS TIME (t 50%) (fibrin clot [4]; phase 2, baseline): 251.9
- Permeability (fibrin clot [4]; phase 2, baseline): 212.52 × 10^11 cm^3
- LYSIS TIME (t 50%) (fibrin clot [4]; [9]): 130.3 ±
- Permeability (fibrin clot [4]; [9]): 306.81 ± × 10^11 cm^3
- COMPACTION (fibrin clot [4]; phase 2, baseline): 22.47%
- COMPACTION (fibrin clot [4]; [9]): 32.21 ± %
- MPC (fibrin clot [4]; phase 2, baseline): 0.1146 g/L
- MPC (fibrin clot [4]; [9]): 0.0852 ± g/l
- μ, (fibrin clot [4]; phase 2, baseline): 22.93 Dal/cm × 10^12
- μ, (fibrin clot [4]; [9]): 34.28 ± Dal/cm × 10^12
- decrease in the total plasma fibrinogen concentration (fibrin clot [4]; phase 2, acetate supplementation, not significant): 11.2%
- FIBRINOGEN (fibrin clot [4]; phase 2, baseline): 4.10 g/L
- FIBRINOGEN (fibrin clot [4]; [9]): 3.64 g/L
- kinetics of network growth (turbidity at 608 nm) (fibrin): enhanced the entire kinetics
- % Inhibition (blood lipids [5]; 0.05 mmol/L (50 μM) acetate): 46.97%
- [Hydroperoxide] (blood lipids [5]; 0.05 mmol/L acetate): 4.46 ± 0.15 × 10^−6 M
- % Inhibition (blood lipids [5]; 0.10 mmol/L (100 μM) acetate): 56.01%
- [Hydroperoxide] (blood lipids [5]; 0.10 mmol/L acetate): 3.70 ± 0.22 × 10^−6 M
- % Inhibition (blood lipids [5]; 0.20 mmol/L (200 μM) acetate): 67.11%
- [Hydroperoxide] (blood lipids [5]; 0.20 mmol/L acetate): 3.04 ± 0.23 × 10^−6 M
- % Inhibition (blood lipids [5]; 0.30 mmol/L (300 μM) acetate): 73.12%
- [Hydroperoxide] (blood lipids [5]; 0.30 mmol/L acetate): 2.26 ± 0.16 × 10^−6 M
- minium inhibition: decrease of peroxidation in vitro from linear regression analysis (blood lipids [5]; r=0.98, m=−0.836): 56.12%
- BMI ([6]; phase 2, baseline): 26.90 kg/m^2
- BMI [6, 9]: 25.65 kg/m^2
- % HDL-C (blood lipids [7]; phase 2, baseline): 17.04%
- ApoA (blood lipids [7]; phase 2, baseline): 1.50 mmol/L
- ApoB (blood lipids [7]; phase 2, baseline): 1.47 mmol/L
- H2O3 (blood lipids [7]; phase 2, baseline): 1.27 µM
- HDL-C (blood lipids [7]; phase 2, baseline): 1.11 mmol/L
- LDL-C (blood lipids [7]; phase 2, baseline): 4.97 ± mmol/l
- TBARM (blood lipids [7]; phase 2, baseline): 1.47 µM
- % HDL-C (blood lipids [7]; [9]): 20.32 ± %
- ApoA (blood lipids [7]; [9]): 1.40 ± mmol/l
- ApoB (blood lipids [7]; [9]): 1.34 ± mmol/l
- H2O3 (blood lipids [7]; [9]): 0.81 ± μM
- HDL-C (blood lipids [7]; [9]): 1.18 mmol/L
- LDL-C (blood lipids [7]; [9]): 4.20 ± mmol/l
- TBARM (blood lipids [7]; [9]): 1.07 µM
- TC (blood lipids [7]; phase 2, baseline): 6.55 mmol/L
- TC (blood lipids [7]; [9]): 5.81 ± mmol/l
- TG (blood lipids [7]; phase 2, baseline): 0.65 mmol/L
- TG (blood lipids [7]; [9]): 1.33 ± mmol/l
- HAEMATOCRIT ([8]; phase 2, baseline): 48.55%
- HAEMOGLOBIN ([8]; phase 2, baseline): 11.12 mmol/L
- HAEMATOCRIT [8, 9]: 46.83 ± %
- HAEMOGLOBIN [8, 9]: 10.48 mmol/L
- VISCOSITY ([8]; phase 2, baseline): 1.92 cP
- VISCOSITY [8, 9]: 1.61 ± cP
